Patent publication US20080188473A1, “Indoles Useful in the Treatment of Inflammation” (priority 2004, published 2008)

These molecules were tested against T1, human mPGES-1 (Homo sapiens, UniProt O14684) (assay: mPGES-1 inhibition assay (conversion of PGH2 to PGE2, HPLC analysis)). Conditions: human mPGES-1 expressed in E. coli, membrane fraction; 25 min preincubation with inhibitor, PGH2 substrate 60 seconds, room temperature; read-out: concentration at which 50% inhibition of mPGES-1 was observed.
T1 construct: made in house; host or cells: E. coli (membrane fraction)
T1 sequence (O14684 1-152): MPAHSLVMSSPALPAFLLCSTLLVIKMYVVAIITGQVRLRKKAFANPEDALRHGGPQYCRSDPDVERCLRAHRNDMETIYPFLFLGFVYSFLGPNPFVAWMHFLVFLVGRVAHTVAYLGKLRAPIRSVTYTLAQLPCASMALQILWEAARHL
Format: biochemical
Protocol: In the assay human mPGES-1 catalyses the reaction where the substrate PGH2 is converted to PGE2. mPGES-1 is expressed in E. coli and the membrane fraction is dissolved in 20 mM NaPi-buffer pH 8.0 and stored at −80° C. […] The stop solution consists of H2O/MeCN (7/3), containing FeCl2 (25 mM) and HCl (0.15 M). The assay is performed at room temperature in 96-well plates.
The following is added chronologically to each well: • 1. 100 μL human in PGES-1 in KPi-buffer with glutathione. Total protein concentration: 0.02 mg/mL. • 2. 1 μL inhibitor in DMSO. Incubation of the plate at room temperature for 25 minutes. • 3. 4 μL of a 0.25 mM PGH2 solution. Incubation of the plate at room temperature for 60 seconds. • 4. 100 μL stop solution. • 180 μL per sample is analyzed with HPLC.
In the case of `CC(=O)Nc1c(C(=O)O)n(-c2ccc(OC(C)C)cc2)c2ccc(-c3ccc(OC(C)C)cc3)cc12` [Example 1, 3-Acetamido-1,5-bis(4-isopropoxyphenyl)-indole-2-carboxylic acid], the IC50 is reported as 3100 nM. Work on `CC(C)Oc1ccc(-c2ccc3c(c2)c(NS(C)(=O)=O)c(C(=O)O)n3-c2ccc(OC(C)C)cc2)cc1` [Example 3, 1,5-Bis(4-isopropoxyphenyl)-3-(methylsulfonamido)indole-2-carboxylic acid] yielded an IC50 of 1700 nM. With `CC(C)Oc1ccc(-n2c(C(=O)O)c(N3CCOCC3)c3cc(-c4ccc(C(F)(F)F)cc4)ccc32)cc1` [Example 7, 1-(4-Isopropoxyphenyl)-3-(4-morpholino)-5-(4-(trifluoromethyl)phenyl)-indole-2-carboxylic acid] the IC50 was 730 nM. With `CC(=O)N(C)c1c(C(=O)O)n(-c2ccc(OC(C)C)cc2)c2ccc(-c3ccc(C(F)(F)F)cn3)cc12` [Example 12, 3-(Acetylmethylamino)-1-(4-isopropoxyphenyl)-5-(5-trifluoromethyl-pyridin-2-yl)-1H-indole-2-carboxylic acid] the IC50 was 5300 nM. In the case of `CC(C)Oc1ccc(-n2c(C(=O)O)c(NC(=O)c3cccnc3)c3cc(-c4ccc(C(F)(F)F)cn4)ccc32)cc1` [Example 13, 1-(4-Isopropoxyphenyl)-3-nicotinamide-5-(5-trifluoromethylpyridin-2-yl)-1H-indole-2-carboxylic acid], the IC50 is reported as 190 nM.
